Test results reported in ChEMBL document CHEMBL5543109, “Novel β-Hairpin Antimicrobial Peptide Containing the β-Turn Sequence of -NG- and the Tryptophan Zippers Facilitate Self-Assembly into Nanofibers, Exhibiting Excellent Antimicrobial Performance” (J Med Chem, 2024).
Converted amounts (≈) assume the structure as drawn. The source made the active and inactive calls. No cut-off for these calls is given here.

Key:
[1] = Retention time of the compound; format: physicochemical
Staphylococcus aureus [2] = assay: Synergistic antibacterial activity against methicillin resistant Staphylococcus aureus 75 assessed as fractional inhibitory concentration index incubated for 18 hrs in presence of rifampin by checkerboard assay; format: functional
Pseudomonas aeruginosa [3] = assay: Induction of morphological change in Pseudomonas aeruginosa assessed as pore formation at 2 times MIC incubated for 30 mins by SEM analysis; format: functional, organism-based
Staphylococcus aureus [4] = assay: Synergistic antibacterial activity against Staphylococcus aureus 794 assessed as fractional inhibitory concentration index incubated for 18 hrs in presence of cefotaxime by checkerboard assay; format: functional
Cell membrane [5] = assay: Induction of cytoplasmic membrane depolarization in Staphylococcus aureus at 2 to 4 times MIC by DiSC3-5 dye based fluorescence method; format: cell membranes
Cell membrane [6] = assay: Induction of cell membrane disruption in Staphylococcus aureus assessed as PI uptake incubated for 2 hrs by PI staining based confocal laser scanning microscopy; format: cell membranes
[7] = Toxicity in BALB/c mouse infected with Staphylococcus aureus 794 assessed as cell necrosis at 1 mg/ml, ip pre-infected with bacteria for 24 hrs followed by compound addition and measured after 13 days in presence of vancomycin by H and E staining based histopathological analysis; format: organism-based; details: in vivo, 312 h, time 13 day
[8] = Toxicity in BALB/c mouse infected with Staphylococcus aureus 794 assessed as increase in number of sweat glands at 1 mg/ml, ip pre-infected with bacteria for 24 hrs followed by compound addition and measured after 13 days by H and E staining based histopathological analysis; format: organism-based; details: in vivo, 312 h, time 13 day
Staphylococcus aureus [9] = assay: Antibacterial activity against Staphylococcus aureus incubated for 18 hrs in presence of ZnCl2 by broth microdilution method; format: functional, organism-based
Staphylococcus aureus [10] = assay: Antibacterial activity against Staphylococcus aureus S125 incubated for 18 hrs by broth microdilution method; format: functional
Klebsiella pneumoniae [11] = assay: Additive antibacterial activity against Klebsiella pneumoniae assessed as fractional inhibitory concentration index incubated for 18 hrs in presence of kanamycin by checkerboard assay; format: functional
[12] = Self-assembly property of compound in PBS assessed as beta-sheet nanofibers formation incubated for 1 hr by Thioflavin T based fluorescence spectrophotometer analysis; format: physicochemical; details: buffer, dose 0.5-1.5 µM
[13] = system: Staphylococcus epidermidis; assay: Antibacterial activity against Staphylococcus epidermidis ATCC 12228 incubated for 18 hrs by broth microdilution method; format: functional
Staphylococcus aureus [14] = assay: Induction of morphological change in Staphylococcus aureus assessed as morphological distortion at 2 times MIC incubated for 30 mins by SEM analysis; format: functional, organism-based
Escherichia coli [15] = assay: […] antibacterial activity against Escherichia coli assessed as fractional inhibitory concentration index incubated for 18 hrs in presence of polymyxin B by checkerboard assay; format: functional
Cell membrane [16] = assay: Induction of inner membrane permeabilization in Escherichia coli ML-35 at 1 to 4 times MIC measured every 5 mins for 120 mins by ONPG dye based assay; format: cell membranes
Escherichia coli [17] = assay: Antibacterial activity against Escherichia coli infected in BALB/c mouse systemic infection model assessed as reduction in liver bacterial load at 5 to 10 mg/kg, ip measured after 24 hrs; format: functional, organism-based; details: dose 5-10 mg/kg
[18] = Acute toxicity in mouse assessed as mortality rate at 300 mg/kg, ip by karber method; format: organism-based; details: in vivo, read-out: Activity
[19] = Acute toxicity in mouse assessed as renal cell necrosis at 230.5 mg/kg, ip by H and E staining based assay; format: organism-based; details: in vivo
Cell membrane [20] = assay: Induction of cytoplasmic membrane depolarization in Staphylococcus aureus at 0.5 times MIC by DiSC3-5 dye based fluorescence method; format: cell membranes
Escherichia coli [21] = assay: Antibacterial activity against Escherichia coli ATCC 25922 incubated for 18 hrs by broth microdilution method; format: functional
[22] = Elimination half life in Sprague-Dawley rat at 1 mg/kg, iv measured upto 120 mins by LC-MS analysis; format: ADME, organism-based; details: in vivo, read-out: beta t1/2
Staphylococcus aureus [23] = assay: Additive antibacterial activity against Staphylococcus aureus 125 assessed as fractional inhibitory concentration index incubated for 18 hrs in presence of kanamycin by checkerboard assay; format: functional
Klebsiella pneumoniae [24] = assay: Bactericidal activity against Klebsiella pneumoniae at 2 times MIC within 90 mins; format: functional; details: 1.5 h
Escherichia coli [25] = assay: Synergistic antibacterial activity against kanamycin resistant Escherichia coli assessed as fractional inhibitory concentration index incubated for 18 hrs in presence of cefotaxime by checkerboard assay; format: functional
Cell membrane [26] = assay: Induction of outer membrane permeabilization in Escherichia coli within 1 min by NPN-dye based assay; format: cell membranes
Staphylococcus aureus [27] = assay: Synergistic antibacterial activity against kanamycin resistant Staphylococcus aureus assessed as fractional inhibitory concentration index incubated for 18 hrs in presence of rifampin by checkerboard assay; format: functional
Pseudomonas aeruginosa [28] = assay: Synergistic antibacterial activity against Pseudomonas aeruginosa assessed as fractional inhibitory concentration index incubated for 18 hrs in presence of polymyxin B by checkerboard assay; format: functional
Staphylococcus aureus [29] = assay: Antibacterial activity against Staphylococcus aureus infected in BALB/c mouse systemic infection model assessed as reduction in liver bacterial load at 5 to 10 mg/kg, ip measured after 8 hrs; format: functional, organism-based; details: dose 5-10 mg/kg
Escherichia coli [30] = assay: Antibacterial activity against kanamycin resistant Escherichia coli assessed as fractional inhibitory concentration index incubated for 18 hrs in presence of kanamycin by checkerboard assay; format: functional
Staphylococcus aureus [31] = assay: Additive antibacterial activity against Staphylococcus aureus 125 assessed as fractional inhibitory concentration index incubated for 18 hrs in presence of cefotaxime by checkerboard assay; format: functional
Staphylococcus aureus [32] = assay: Additive antibacterial activity against methicillin resistant Staphylococcus aureus assessed as fractional inhibitory concentration index incubated for 18 hrs in presence of gentamycin by checkerboard assay; format: functional
Escherichia coli [33] = assay: Antibacterial activity against Escherichia coli infected in BALB/c mouse systemic infection model assessed as reduction in kidney bacterial load at 5 to 10 mg/kg, ip measured after 24 hrs; format: functional, organism-based; details: dose 5-10 mg/kg
Cell membrane [34] = assay: Induction of cell membrane disruption in Staphylococcus aureus assessed as PI uptake at 2 times MIC incubated for 2 hrs by PI staining based flow cytometry analysis (reference value: 15.9%); format: cell membranes
Klebsiella pneumoniae [35] = assay: Antibacterial activity against Klebsiella pneumoniae ATCC 700603 incubated for 18 hrs by broth microdilution method; format: functional
Staphylococcus aureus [36] = assay: Antibacterial activity against Staphylococcus aureus incubated for 18 hrs in presence of MgCl2 by broth microdilution method; format: functional, organism-based
Staphylococcus aureus [37] = assay: Antibacterial activity against Staphylococcus aureus S794 incubated for 18 hrs by broth microdilution method; format: functional
Pseudomonas aeruginosa [38] = assay: Antibacterial activity against Pseudomonas aeruginosa incubated for 18 hrs in presence of CaCl2 by broth microdilution method; format: functional, organism-based
Staphylococcus aureus [39] = assay: Induction of morphological change in Staphylococcus aureus assessed as bacterial collapse at 2 times MIC incubated for 30 mins by SEM analysis; format: functional, organism-based
Escherichia coli [40] = assay: Antibacterial activity against kanamycin resistant Escherichia coli incubated for 18 hrs by broth microdilution method; format: functional
Cell membrane [41] = assay: Induction of cell membrane disruption in Escherichia coli assessed as PI uptake at 2 times MIC incubated for 2 hrs by PI staining based flow cytometry analysis (reference value: 11.9%); format: cell membranes
Staphylococcus aureus [42] = assay: Bactericidal activity against Staphylococcus aureus ATCC 25923 incubated for 18 hrs by broth microdilution method; format: functional
Staphylococcus aureus [43] = assay: Additive antibacterial activity against methicillin resistant Staphylococcus aureus 113 assessed as fractional inhibitory concentration index incubated for 18 hrs in presence of streptomycin by checkerboard assay; format: functional
[44] = Self-assembly property of compound in PBS assessed as critical aggregation concentration incubated for 48 hrs; format: physicochemical; details: buffer

What does the source list for NCCCC[C@@H](NC(=O)[C@H](N)Cc1c[nH]c2ccccc12)C(=O)N[C@H](Cc1c[nH]c2ccccc12)C(=O)N[C@H](CCCCN)C(=O)N[C@H](Cc1c[nH]c2ccccc12)C(=O)N[C@@H](CC(N)=O)C(=O)NCC(=O)N[C@H](Cc1c[nH]c2ccccc12)C(=O)N[C@H](CCCCN)C(=O)N[C@H](Cc1c[nH]c2ccccc12)C(=O)N[C@H](CCCCN)C(=O)N[C@H](Cc1c[nH]c2ccccc12)C(N)=O?
Retention_time [1]: 14.321 min; fractional inhibitory concentration index (FICI) (Staphylococcus aureus [2]): 0.313; Activity (Pseudomonas aeruginosa [3]): Active; fractional inhibitory concentration index (FICI) (Staphylococcus aureus [4]): 0.313; Activity (Cell membrane [5]): Active; Activity (Cell membrane [6]): Dose-Dependent Effect; Activity [7]: Toxic; Activity [8]: Toxic; Activity (Staphylococcus aureus [9]): Active; MIC (Staphylococcus aureus [10]): 8 µM (≈ 14.5 µg/mL); fractional inhibitory concentration index (FICI) (Klebsiella pneumoniae [11]): 0.563; Activity [12]: Dose-Dependent Effect; MIC [13]: 4 µM (≈ 7.27 µg/mL); Activity (Staphylococcus aureus [14]): Active; fractional inhibitory concentration index (FICI) (Escherichia coli [15]): 0.375; Activity (Cell membrane [16]): Active; Activity (Escherichia coli [17]): Active; mortality [18]: 100%; Activity [19]: Toxic; Activity (Cell membrane [20]): inactive; MIC (Escherichia coli [21]): 8 µM (≈ 14.5 µg/mL); half-life [22]: 11.4 min; fractional inhibitory concentration index (FICI) (Staphylococcus aureus [23]): 0.563; Activity (Klebsiella pneumoniae [24]): 100%; fractional inhibitory concentration index (FICI) (Escherichia coli [25]): 0.375; Activity (Cell membrane [26]): Dose-Dependent Effect; fractional inhibitory concentration index (FICI) (Staphylococcus aureus [27]): 0.313; fractional inhibitory concentration index (FICI) (Pseudomonas aeruginosa [28]): 0.188; Activity (Staphylococcus aureus [29]): Active; fractional inhibitory concentration index (FICI) (Escherichia coli [30]): 0.188; fractional inhibitory concentration index (FICI) (Staphylococcus aureus [31]): 0.75; fractional inhibitory concentration index (FICI) (Staphylococcus aureus [32]): 0.75; Activity (Escherichia coli [33]): Active; Activity (Cell membrane [34]): 96.6%; MIC (Klebsiella pneumoniae [35]): 8 µM (≈ 14.5 µg/mL); Activity (Staphylococcus aureus [36]): Active; MIC (Staphylococcus aureus [37]): 8 µM (≈ 14.5 µg/mL); Activity (Pseudomonas aeruginosa [38]): Active; Activity (Staphylococcus aureus [39]): Active; MIC (Escherichia coli [40]): 16 µM (≈ 29.1 µg/mL); Activity (Cell membrane [41]): 86.2%; MBC (Staphylococcus aureus [42]): 8 µM (≈ 14.5 µg/mL); fractional inhibitory concentration index (FICI) (Staphylococcus aureus [43]): 0.563; CAC [44]: 7.78 µM
